Source: PMC11250742, “Preclinical evaluation of CXCR4 peptides for targeted radionuclide therapy in glioblastoma” (EJNMMI Radiopharmacy and Chemistry, 2024)
Where a SMILES comes first, the peptide text is derived from it. Bridges are numbered along the chain shown (N, C = ends). [ ]: non-standard residue; d: D form. The star is where a group is joined. DOTA = O=C(O)CN1CCN(CC(=O)O)CCN(CC(=O)*)CCN(CC(=O)O)CC1; 2Nal = N[C@@H](Cc1ccc2ccccc2c1)C(=O)O; Cit = NC(=O)NCCC[C@H](N)C(=O)O

Target: T1, CXCR4 (Homo sapiens, UniProt P61073)
T1 construct: expressed in transfected cells; host or cells: U87-MG (U87-CXCR4+), kept under blasticidin selection
T1 sequence (P61073 whole entry): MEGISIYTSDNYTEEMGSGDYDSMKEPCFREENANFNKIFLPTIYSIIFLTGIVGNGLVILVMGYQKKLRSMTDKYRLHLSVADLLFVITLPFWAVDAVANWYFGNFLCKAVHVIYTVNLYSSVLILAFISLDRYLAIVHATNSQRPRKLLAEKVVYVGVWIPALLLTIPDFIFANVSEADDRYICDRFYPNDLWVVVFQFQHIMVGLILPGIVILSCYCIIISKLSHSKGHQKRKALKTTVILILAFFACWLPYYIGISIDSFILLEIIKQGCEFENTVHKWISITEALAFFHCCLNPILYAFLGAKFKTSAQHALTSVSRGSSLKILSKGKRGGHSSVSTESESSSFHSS
Test: Saturation binding assay on U87-CXCR4 + cells
Details: 0.1–1000 nM, 4 h, 37 °C; NSB with 100 µM AMD11070; N = 2
Procedure: In the saturation binding assays, U87-CXCR4 + cells were seeded in 24-well plates and allowed to adhere. The night before the experiment, complete media was replaced with media containing 2% FBS. To determine the total binding, cells were treated with a mixture of each radiolabelled peptide (at final concentrations ranging from 0.1 to 1000 nM, corresponding to activity concentrations ranging from 0.005 to 50 MBq/mL) with 0.2% dimethyl sulfoxide (DMSO, vehicle). Non-specific binding (NSB) was verified by treating cells with a mixture of each radiolabelled peptide with 100 µM of AMD11070, a potent CXCR4 antagonist.
After 4 h of incubation at 37 °C and 5% CO2, the unbound fraction was collected in gamma counter tubes, and the cells were washed twice with PBS. The wash fractions were added to the same gamma counter tubes. Next, cells were lysed by incubation with 1 M NaOH for 30 min at room temperature (RT). After collecting the lysed cell fractions, two washes with 1 M NaOH were performed, and added to the same fractions, corresponding to the total bound fractions.
The activities of all collected fractions were measured in an automated gamma counter. […]
Statistical analyses and data plotting were done using GraphPad Prism 10. […] Statistical significance was evaluated with one-way ANOVA followed by post-hoc comparisons with the untreated cells using Dunnett’s test. […]

Question: `N=C(N)NCCC[C@@H]1NC(=O)[C@@H]2CSSC[C@H](NC(=O)[C@H](Cc3ccc4ccccc4c3)NC(=O)[C@H](CCCNC(=N)N)NC(=O)[C@H](CCCNC(=N)N)NC(=O)[C@H]3CCCN3C(=O)CNC1=O)C(=O)N[C@@H](Cc1ccc(O)cc1)C(=O)N[C@@H](CCC(N)=O)C(=O)N[C@@H](CCCCNC(=O)CN1CCN(CC(=O)O)CCN(CC(=O)O)CCN(CC(=O)O)CC1)C(=O)N1CCC[C@@H]1C(=O)N1CCC[C@H]1C(=O)N[C@@H](Cc1ccc(O)cc1)C(=O)N[C@@H](CCCNC(=N)N)C(=O)N[C@@H](CCCNC(N)=O)C(=O)N2` [[^177Lu]Lu-DOTA-POL3026, metal not drawn] (cyclo(RR[2Nal]CYQK(DOTA)[dP]PYR[Cit]CRG[dP]); disulfide 4-13) was tested. Which Kd did it give?
Answer: 0.0218 µM
